Results as given in article PMC8850549 (Toxicology Reports, 2022).
Values joined by “and” are separate entries in the source; they are usually repeats but may differ in a detail not shown here. Equal entries are not always repeated. “Also recorded” adds a separate entry of the source. Where two headings read alike, the source gives them in different places.

Assays:
[1] = system: Salmonella typhimurium TA1535; assay: Bacterial reverse mutation test; assay type: cell-based; conditions: for mutagenic response (increase in mutation frequencies): with rat liver S9, preincubation and plate incorporation; for fold increase in mutation frequencies: rat liver S9, 5000 μg/plate
[2] = system: Salmonella typhimurium TA100; assay: Bacterial reverse mutation test; assay type: cell-based; conditions: for mutagenic response (increase in mutation frequencies): with rat liver S9, preincubation and plate incorporation
E. coli WP2 uvrA = assay: Bacterial reverse mutation test; assay type: cell-based; conditions: for mutagenic response (increase in mutation frequencies): with rat liver S9, preincubation and plate incorporation
TA1537 = assay: Bacterial reverse mutation test; assay type: cell-based, Salmonella typhimurium; conditions: under any condition (preincubation or plate incorporation, with or without S9)
TA98 = assay: Bacterial reverse mutation test; assay type: cell-based, Salmonella typhimurium; conditions: under any condition (preincubation or plate incorporation, with or without S9)
TA1535 = conditions: cited from earlier work
[3] = system: Salmonella typhimurium and E. coli strains; assay: Bacterial reverse mutation test; assay type: cell-based; conditions: rat liver S9, solvent water
bacterial mutagenicity = conditions: cited from earlier work
[4] = plate incorporation, solvent DMSO, rat liver S9, at 5000 μg/plate only
[5] = preincubation, solvent water, rat liver S9, 5000 μg/plate

Question: With `CCCCN(CCCC)N=O` [NDBA, N-nitrosodibutylamine] as the compound, how does the “fold induction, plate incorporation compared with preincubation” value ([1]; rat liver S9, solvent DMSO) read?
Answer: higher fold inductions using the plate incorporation protocol

Question: What about the “mutagenic response (increase in mutation frequencies)” value [1] of the same compound?
Answer: relevant increases

Question: And the “mutagenic response (increase in mutation frequencies)” value [2]?
Answer: relevant increases

Question: What about the “fold induction, plate incorporation compared with preincubation” value (E. coli WP2 uvrA; rat liver S9, solvent DMSO) of the same compound?
Answer: higher fold inductions using the plate incorporation protocol

Question: What about the “mutagenic response (increase in mutation frequencies)” value (E. coli WP2 uvrA) of the same compound?
Answer: relevant increases

Question: Which results are given for `CCN(CC)N=O` [NDEA, N-nitrosodiethylamine]?
Answer: fold increase in mutation frequencies (above threshold) [1, 4]: > 3 fold; fold change with water compared with DMSO as solvent ([1]; preincubation, rat liver S9): slightly increased fold changes; also recorded: slightly higher mutation frequencies; fold increase in mutation frequencies ([1]; preincubation, solvent DMSO): ~5 fold and 4 fold; fold increase in mutation frequencies ([1]; preincubation, solvent water): ~9 fold; mutagenic response (increase in mutation frequencies) [1]: exponential increase in mutation frequencies; mutagenic response (TA1537): no response; fold increase in mutation frequencies (above threshold) [2, 4]: > 2 fold; fold change with water compared with DMSO as solvent ([2]; preincubation, rat liver S9): no change; fold increase in mutation frequencies [2, 5]: about 4 fold; mutagenic response (increase in mutation frequencies) [2]: exponential increase in mutation frequencies; mutagenic response (TA98): no response; mutagenicity (TA1535; hamster S9): mutagenic; mutagenicity (TA1535; rat S9): not with rat S9; fold increase in mutation frequencies (E. coli WP2 uvrA; plate incorporation, solvent DMSO, rat liver S9, top concentration 5000 μg/plate): 12 fold; fold change with water compared with DMSO as solvent (E. coli WP2 uvrA; preincubation, rat liver S9): slightly increased fold changes; also recorded: slightly higher mutation frequencies; fold increase in mutation frequencies (E. coli WP2 uvrA; preincubation, solvent DMSO, rat liver S9, 5000 μg/plate): ~30 fold; fold increase in mutation frequencies (E. coli WP2 uvrA; [5]): ~39 fold; mutagenic response (increase in mutation frequencies) (E. coli WP2 uvrA): exponential increase in mutation frequencies

Question: What does the source list for `CN(C)N=O` [NDMA, N-nitrosodimethylamine]?
Answer: detection of mutagenicity ([3]; plate incorporation protocol): fails; also recorded: no clear positive response; detection of mutagenicity ([3]; preincubation protocol): allows the detection of mutagenicity; detection of bacterial mutagenicity (bacterial mutagenicity; plate incorporation): failed; detection of bacterial mutagenicity (bacterial mutagenicity; preincubation protocol): allowed to detect; mutagenicity (TA1535; hamster S9): mutagenic; mutagenicity (TA1535; rat S9): not with rat S9

Question: With `CCCN(CCC)N=O` [NDPA, N-nitrosodipropylamine] as the compound, how does the “mutagenic response (increase in mutation frequencies)” value [1] read?
Answer: relevant increases

Question: And the “mutagenic response (increase in mutation frequencies)” value [2]?
Answer: relevant increases

Question: And the “mutagenic response (increase in mutation frequencies)” value (E. coli WP2 uvrA)?
Answer: relevant increases
